Test systems include SK-MEL-28 melanoma; A549 NSCLC; SW-620 colon; HT29 colon; LOX IMVI melanoma; UO-31 renal; NCI-H23 lung; RXF 393 renal; HCT-116 colon.
Common to all, as to assay: NCI anticancer screen, dose series, 48 h

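Compound exposure: 48 hours, 5 concentrations, 96-well plates. TGI denotes the concentration required for complete inhibition of growth.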

Turning to `Cc1ccc(C2CC(c3ccc([N+](=O)[O-])cc3)=Nc3ccccc3S2)cc1` (stereo unspecified), the TGI in the experiment with SK-MEL-28 melanoma was 94.3 µM; in the experiment on A549 NSCLC, greater than 100 µM; in the experiment with SW-620 colon it was 46.6 µM; in the experiment on HT29 colon, 95.5 µM; in the experiment with LOX IMVI melanoma, 34.6 µM; with UO-31 renal, greater than 100 µM. In addition, the TGI in the experiment on NCI-H23 lung came out at 77.4 µM; with RXF 393 renal, 38.9 µM.

`CCC1=C(C)/C(=C/c2[nH]c(C(Br)Br)c(CC)c2C)N=C1C(Br)Br`: the TGI in the experiment on SK-MEL-28 melanoma, with A549 NSCLC, with SW-620 colon, in the experiment with HT29 colon, with LOX IMVI melanoma and in the experiment with UO-31 renal was greater than 100 µM in each case. Moreover, the TGI in the experiment with NCI-H23 lung was greater than 100 µM; in the experiment on RXF 393 renal, 78.9 µM; in the experiment on HCT-116 colon, greater than 100 µM.

In the case of `O=C(O)C1CCc2nnc(-c3ccccc3)n21` (stereo unspecified), the TGI in the experiment on SK-MEL-28 melanoma, in the experiment with A549 NSCLC, with SW-620 colon, in the experiment with UO-31 renal, in the experiment on RXF 393 renal and in the experiment with HCT-116 colon was greater than 100 µM throughout.

On to `COc1c(C2=NC(C(C)C)CO2)ccc2ccccc12` (stereo unspecified), for which the TGI with SK-MEL-28 melanoma, in the experiment on A549 NSCLC, with SW-620 colon, in the experiment on HT29 colon, in the experiment on LOX IMVI melanoma and with UO-31 renal was greater than 100 µM throughout. The TGI with NCI-H23 lung is greater than 100 µM; with RXF 393 renal, 86.8 µM.

`O=C1c2ccccc2C(=O)C2C1C1C(=O)c3ccccc3C(=O)C21` (stereo unspecified): the TGI with SK-MEL-28 melanoma, in the experiment with A549 NSCLC, with SW-620 colon, with HT29 colon, in the experiment with LOX IMVI melanoma and in the experiment on UO-31 renal was greater than 100 µM in each case. Moreover, the TGI with NCI-H23 lung and in the experiment on RXF 393 renal was greater than 100 µM throughout.

Regarding `CC1(C)C(c2ccccc2)C12CCC1(C2=O)C(c2ccccc2)C1(C)C` (stereo unspecified), the TGI in the experiment on SK-MEL-28 melanoma came out at 78.3 µM; in the experiment on A549 NSCLC, 75.7 µM; in the experiment with SW-620 colon, 46.8 µM; with HT29 colon it was 35 µM; with LOX IMVI melanoma it was 42.7 µM; in the experiment on UO-31 renal it was 58.9 µM. The figures for the TGI in the experiment on NCI-H23 lung, in the experiment with RXF 393 renal and in the experiment on HCT-116 colon were 44.6 µM, 45.7 µM and 33.6 µM, respectively.

Take `Cc1c(C(=O)CC(=O)C(=O)Nc2c(C(C)C)cccc2C(C)C)[n+](=O)c2ccccc2n1[O-]`: the TGI in the experiment on SK-MEL-28 melanoma was found to be 48.3 µM; in the experiment with A549 NSCLC, 32.3 µM; in the experiment with SW-620 colon, 13.2 µM; in the experiment with HT29 colon, 13.9 µM; with LOX IMVI melanoma, 12.9 µM; with UO-31 renal, 31.4 µM. Further, the TGI in the experiment on NCI-H23 lung amounted to 34 µM; in the experiment with RXF 393 renal, 38.9 µM; in the experiment with HCT-116 colon it was 9.1 µM.

As for `O=S1CSCS1` (stereo unspecified), the TGI in the experiment with SK-MEL-28 melanoma, with A549 NSCLC, with SW-620 colon, in the experiment on HT29 colon, with LOX IMVI melanoma and in the experiment with UO-31 renal was greater than 100 µM throughout. For the same compound, the TGI in the experiment on NCI-H23 lung, in the experiment on RXF 393 renal and with HCT-116 colon was greater than 100 µM throughout.

`CCOC(=O)c1cc(/C=C/C(C)=C/C(=O)OC)oc1-c1ccccc1`: the TGI with A549 NSCLC, in the experiment on SW-620 colon, with HT29 colon, with LOX IMVI melanoma, with UO-31 renal and in the experiment with NCI-H23 lung was greater than 100 µM each time. The compound further displayed a TGI in the experiment with HCT-116 colon greater than 100 µM.

Turning to `O=C(c1ccccc1)C(c1ccccc1)C1(O)C(=O)Nc2ccccc21` (stereo unspecified), the TGI in the experiment on SK-MEL-28 melanoma, in the experiment on A549 NSCLC, in the experiment on SW-620 colon, in the experiment with HT29 colon, in the experiment with LOX IMVI melanoma and in the experiment with UO-31 renal was greater than 100 µM throughout. For the same compound, the TGI in the experiment on NCI-H23 lung, in the experiment with RXF 393 renal and in the experiment on HCT-116 colon was greater than 100 µM in each case.

For the compound `CCCN(CCCN)/[N+]([O-])=N\O`, the TGI in the experiment with SK-MEL-28 melanoma, in the experiment on A549 NSCLC, in the experiment on SW-620 colon, in the experiment on HT29 colon, with UO-31 renal and in the experiment on NCI-H23 lung was greater than 100 µM each time. The TGI in the experiment with RXF 393 renal and in the experiment on HCT-116 colon was greater than 100 µM throughout.

Consider `Cc1nc2ccccc2c(=O)n1/N=C(\N=Nc1cc(Cl)ccc1Cl)c1cccc(-c2ccco2)c1`, for which the TGI with SK-MEL-28 melanoma, with A549 NSCLC, with SW-620 colon, with HT29 colon, with LOX IMVI melanoma and in the experiment with UO-31 renal was greater than 100 µM throughout. Besides, the TGI with NCI-H23 lung, with RXF 393 renal and with HCT-116 colon was greater than 100 µM in each case.

In the case of `COc1cc(=O)oc(/C=C/C=O)c1C`, the TGI in the experiment on SK-MEL-28 melanoma is 26.6 µM; with A549 NSCLC, greater than 100 µM; in the experiment with SW-620 colon, 37.6 µM; with HT29 colon, 40.7 µM; in the experiment with LOX IMVI melanoma it was 16.6 µM; with UO-31 renal, 39.4 µM. In addition, the TGI in the experiment on NCI-H23 lung is 46.7 µM; in the experiment on RXF 393 renal, 34.8 µM; in the experiment on HCT-116 colon, 17.4 µM.

On to `COc1ccc(C2=Nc3ccccc3SC(C)C2)cc1` (stereo unspecified), for which the TGI in the experiment with SK-MEL-28 melanoma, in the experiment with A549 NSCLC, in the experiment with SW-620 colon, in the experiment with HT29 colon, in the experiment on LOX IMVI melanoma and in the experiment with UO-31 renal was greater than 100 µM throughout. For the same compound, the results for the TGI with NCI-H23 lung, in the experiment with RXF 393 renal and in the experiment with HCT-116 colon were greater than 100 µM, greater than 100 µM and 33 µM, respectively.

`CC(C)(C)N/N=C(\Cc1occc(=O)c1O)C(=O)Nc1ccc([N+](=O)[O-])cc1[N+](=O)[O-]`: the TGI in the experiment on SK-MEL-28 melanoma, with A549 NSCLC, in the experiment on SW-620 colon, in the experiment with HT29 colon, in the experiment on LOX IMVI melanoma and with UO-31 renal was greater than 100 µM throughout. The TGI in the experiment with NCI-H23 lung, in the experiment with RXF 393 renal and in the experiment with HCT-116 colon was greater than 100 µM throughout.

For the origin of these results see PubChem BioAssay (NCI).
